These results are taken from ChEMBL document CHEMBL5726927, “Heterocyclic derivatives as modulators of kinase activity” (2019).

A short description of the assay: P70S6K Enzyme Assay: P70S6K inhibitor compounds were diluted and plated in 96 well plates. A reaction mixture including the following components was then added to the compound plate to initiate the enzyme reaction; P70S6K (3 nM, T412E mutant, Millipore) was mixed with 24 μM ATP in an assay buffer containing 100 mM Hepes (pH 7.5), 5 mM MgCl2, 1 mM DTT, 0.015% Brij and 1 μM of the substrate peptide FITC-AHA-AKRRRLSSLRA-OH (derived from the S6 ribosomal protein sequence, FITC=fluorescein isothiocyanate, AHA=6-aminohexanoic acid). The reaction was incubated for 90 min at 25° C., before the addition of 10 mM EDTA to stop the reaction. The proportion of substrate and product (phosphorylated) peptide was analysed on a Caliper Life Sciences Lab Chip 3000, using a pressure of −1.4 psi, and upstream and downstream voltages of −3000 and −700 respectively. Product peaks were resolved before substrate peaks on the resulting chromatograms.

Where only a bound is given, the exact number is not on record here.

The term IC50 denotes the midpoint of a concentration-inhibition curve. As for `O=C1CNc2ncnc(N3CCN(C(CN4CCCC4)c4ccc(F)c(Cl)c4)CC3)c2N1` (stereo unspecified), the IC50 is greater than 1 µM.
